Measured values as given in patent US20230285340A1, “NEPRILYSIN INHIBITORS” (THERAVANCE BIOPHARMA R&D IP, LLC, priority 2011, published 2023).

Target: human NEP (Homo sapiens (Human), UniProt P08473)
Test: In vitro enzyme inhibition assay at human NEP (Assay 1)
Assay type: biochemical
Conditions: comparative examples, exact values

| Compound | pKi |
| --- | --- |
| C[C@H](C[C@@H](Cc1ccc(-c2ccccc2)cc1)NC(=O)C(=O)O)C(=O)O [Comparative Compound A, (2R,4S)-5-Biphenyl-4-yl-2-methyl-4-(oxalyl-amino)-pentanoic Acid, reference compound] | 8.2 |

Same assay, conditions: reported as ranges

| pKi | Compound |
| --- | --- |
| ≥9 | Cc1ccc(Cl)cc1-c1ccc(C[C@H](C[C@@H](O)C(=O)O)NC(=O)C(=O)O)cc1 [Example 5-1, (2R,4R)-5-(5′-Chloro-2′-methylbiphenyl-4-yl)-2-hydroxy-4-(oxalylamino)-pentanoic acid] |
| ≥9 | O=C(O)C(=O)N[C@H](Cc1ccc(-c2cc(Cl)ccc2F)cc1)C[C@@H](O)C(=O)O [Example 5-5, (2R,4R)-5-(5′-Chloro-2′-fluorobiphenyl-4-yl)-2-hydroxy-4-(oxalylamino)pentanoic acid] |
| ≥9 | O=C(O)C(=O)N[C@H](Cc1ccc(-c2cccc(Cl)c2)cc1Cl)C[C@@H](O)C(=O)O [Example 5-9, (2R,4R)-5-(3,3′-Dichlorobiphenyl-4-yl)-2-hydroxy-4-(oxalylamino)pentanoic acid] |
| ≥9 | O=C(O)C(=O)NN(Cc1ccc(-c2cc(Cl)ccc2F)cc1Cl)C[C@@H](O)C(=O)O [Example 5-13, (R)-3-[N-(3,5′-Dichloro-2′-fluorobiphenyl-4-ylmethyl)-N′-oxalyl-hydrazino]-2-hydroxypropionic acid] |
| ≥9 | CCOC(=O)C(=O)N[C@H](Cc1ccc(-c2cc(Cl)ccc2F)cc1)C[C@@H](O)C(=O)O [Example 5-14, (2R,4R)-5-(5′-Chloro-2′-fluorobiphenyl-4-yl)-4-(ethoxyoxalylamino)-2-hydroxy-pentanoic acid] |
| ≥9 | CC(C)OC(=O)C(=O)N[C@H](Cc1ccc(-c2cc(Cl)ccc2F)cc1)C[C@@H](O)C(=O)O [Example 5-15, (2R,4R)-5-(5′-Chloro-2′-fluorobiphenyl-4-yl)-2-hydroxy-4-(isopropoxyoxalyl-amino)-pentanoic acid] |
| ≥9 | CCOC(=O)[C@H](O)C[C@@H](Cc1ccc(-c2cccc(Cl)c2)cc1Cl)NC(=O)C(=O)O [Example 5-17, (2R,4R)-5-(3,3′-Dichlorobiphenyl-4-yl)-2-hydroxy-4-(oxalylamino)pentanoic acid ethyl ester] |
| 8.0-8.9 | C[C@@](CO)(C[C@@H](Cc1ccc(-c2ccccc2F)cc1)NC(=O)C(=O)O)C(=O)O [Example 11-1, (2S,4R)-5-(2′-Fluorobiphenyl-4-yl)-2-hydroxymethyl-2-methyl-4-(oxalylamino)pentanoic acid] |
| ≥9 | C[C@@](CO)(C[C@@H](Cc1ccc(-c2cc(Cl)ccc2F)cc1)NC(=O)C(=O)O)C(=O)O [Example 11-2, (2S,4R)-5-(5′-Chloro-2′-fluorobiphenyl-4-yl)-2-hydroxymethyl-2-methyl-4-(oxalyl-amino)pentanoic acid] |
| 7.0-7.9 | C[C@@](CO)(C[C@@H](Cc1ccc(-c2ccc(F)cc2)cc1)NC(=O)C(=O)O)C(=O)O [Example 11-3, (2S,4R)-5-(4′-Fluorobiphenyl-4-yl)-2-hydroxymethyl-2-methyl-4-(oxalylamino)pentanoic acid] |

| Compound | pKi |
| --- | --- |
| CC(C)COC(=O)C(=O)N[C@H](Cc1ccc(-c2cccc(Cl)c2)cc1)C[C@@](C)(CO)C(=O)O [Example 11-4, (2S,4R)-5-(3′-Chlorobiphenyl-4-yl)-2-hydroxymethyl-4-(isobutoxyoxalyl-amino)-2-methylpentanoic acid] | 8.0-8.9 |
